Data from patent publication US8802597B2, “Herbicidal pyrimidines” (E I du Pont de Nemours and Company, priority 2003, dated 2014).
Like-named read-outs stand apart in the source and are kept apart here.

Legend:
Assay type in all cases: in vivo
[1] = system: blackgrass (Alopecurus myosuroides); experiment: Test B postemergence; conditions: Alopecurus myosuroides, post-emergence, scale 0 to 100 (0 no effect, 100 complete control), read-out: Blackgrass plant response rating
Summary of the method: (§1)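 Formulation: non-phytotoxic solvent blend with surfactant. Timing: preemergence on seeds, postemergence at 1- to 4-leaf (2–18 cm). Assessment: visual, 0–100 against controls, after 13–15 days' greenhouse growth.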

wild oat (Avena fatua) = experiment: Test B postemergence; conditions: Avena fatua, post-emergence, scale 0 to 100 (0 no effect, 100 complete control), read-out: Oat, Wild plant response rating
Summary of the method: as §1

[2] = system: barnyardgrass (Echinochloa crus-galli); experiment: Test B pre/postemergence; conditions: Echinochloa crus-galli, scale 0 to 100 (0 no effect, 100 complete control); for pest or weed control at 4 g/ha: 4 g ai/ha; for pest or weed control at 62 g/ha: 62 g ai/ha
Summary of the method: as §1

[3] = system: morningglory (Ipomoea coccinea); experiment: Test B pre/postemergence; conditions: Ipomoea; for pest or weed control at 4 g/ha: 4 g ai/ha; for pest or weed control at 62 g/ha: 62 g ai/ha
Summary of the method: as §1

[4] = system: crabgrass (Digitaria sanguinalis); experiment: Test B pre/postemergence; conditions: Digitaria sanguinalis; for pest or weed control at 4 g/ha: 4 g ai/ha; for pest or weed control at 62 g/ha: 62 g ai/ha
Summary of the method: as §1

[5] = system: giant foxtail (Setaria faberii); experiment: Test B pre/postemergence; conditions: Setaria faberi; for pest or weed control at 4 g/ha: 4 g ai/ha; for pest or weed control at 62 g/ha: 62 g ai/ha
Summary of the method: as §1

corn (Zea mays) = experiment: Test B pre/postemergence; conditions: Zea mays
Summary of the method: as §1

[6] = system: lambsquarters (Chenopodium album); experiment: Test B pre/postemergence; conditions: Chenopodium album; for pest or weed control at 4 g/ha: 4 g ai/ha; for pest or weed control at 62 g/ha: 62 g ai/ha
Summary of the method: as §1

[7] = system: wheat (Triticum aestivum); experiment: Test B pre/postemergence; conditions: Triticum aestivum, scale 0 to 100 (0 no effect, 100 complete control); for plant injury at 4 g/ha: 4 g ai/ha; for plant injury at 62 g/ha: 62 g ai/ha
Summary of the method: as §1

[8] = system: velvetleaf (Abutilon theophrasti); experiment: Test B pre/postemergence; conditions: Abutilon theophrasti; for pest or weed control at 4 g/ha: 4 g ai/ha; for pest or weed control at 62 g/ha: 62 g ai/ha
Summary of the method: as §1

[9] = system: Surinam grass (Brachiaria decumbens); experiment: Test B pre/postemergence; conditions: Urochloa decumbens; for pest or weed control at 4 g/ha: 4 g ai/ha; for pest or weed control at 62 g/ha: 62 g ai/ha
Summary of the method: as §1

[10] = system: cocklebur (Xanthium strumarium); experiment: Test B pre/postemergence; conditions: Xanthium strumarium; for pest or weed control at 4 g/ha: 4 g ai/ha; for pest or weed control at 62 g/ha: 62 g ai/ha
Summary of the method: as §1

[11] = system: pigweed (Amaranthus retroflexus); experiment: Test B pre/postemergence; conditions: Amaranthus retroflexus; for pest or weed control at 4 g/ha: 4 g ai/ha; for pest or weed control at 62 g/ha: 62 g ai/ha
Summary of the method: as §1

[12] = post-emergence, Postemergence, read-out: Barnyardgrass plant response rating
[13] = pre-emergence, Preemergence, read-out: Plant response rating, Barnyardgrass
[14] = post-emergence, Postemergence, scale 0 to 100 (0 no effect, 100 complete control), read-out: Morningglory plant response rating
[15] = post-emergence, Postemergence, scale 0 to 100 (0 no effect, 100 complete control), read-out: Crabgrass plant response rating
[16] = post-emergence, Postemergence, scale 0 to 100 (0 no effect, 100 complete control), read-out: Foxtail, Giant plant response rating
[17] = post-emergence, Postemergence, scale 0 to 100 (0 no effect, 100 complete control), read-out: Lambsquarters plant response rating
[18] = post-emergence, Postemergence, read-out: Wheat plant response rating
[19] = pre-emergence, Preemergence, read-out: Plant response rating, Wheat
[20] = post-emergence, Postemergence, scale 0 to 100 (0 no effect, 100 complete control), read-out: Velvetleaf plant response rating
[21] = post-emergence, Postemergence, scale 0 to 100 (0 no effect, 100 complete control), read-out: Surinam Grass plant response rating
[22] = post-emergence, Postemergence, scale 0 to 100 (0 no effect, 100 complete control), read-out: Cocklebur plant response rating
[23] = post-emergence, Postemergence, scale 0 to 100 (0 no effect, 100 complete control), read-out: Pigweed plant response rating

`Nc1nc(-c2ccc(Cl)cc2)nc(C(=O)O)c1Cl` [Compound 65, 6-amino-5-chloro-2-(4-chlorophenyl)-4-pyrimidinecarboxylic acid] showed a pest or weed control at 4 g/ha ([1]; 4 g ai/ha) of 20%, a pest or weed control at 62 g/ha ([1]; 62 g ai/ha) of 70% and a pest or weed control at 4 g/ha (wild oat (Avena fatua); 4 g ai/ha) of 0%. The pest or weed control at 62 g/ha (wild oat (Avena fatua); 62 g ai/ha) was 40%, the pest or weed control at 4 g/ha [2, 12] was 20% and the pest or weed control at 62 g/ha [2, 12] was 70%. For the same molecule, the pest or weed control at 4 g/ha [2, 13] was 0%, the pest or weed control at 62 g/ha [2, 13] was 40% and the pest or weed control at 4 g/ha [3, 14] was 70%. The pest or weed control at 62 g/ha [3, 14] was 80%, the pest or weed control at 4 g/ha ([3]; pre-emergence, Preemergence, scale 0 to 100 (0 no effect, 100 complete control), read-out: Plant response rating, Morningglory) was 0% and the pest or weed control at 62 g/ha ([3]; pre-emergence, Preemergence, scale 0 to 100, 0 no effect, 100 complete control, read-out: Plant response rating, Morningglory) was 30%. For the same molecule, the pest or weed control at 4 g/ha [4, 15] was 20%, the pest or weed control at 62 g/ha [4, 15] was 80% and the pest or weed control at 4 g/ha ([4]; pre-emergence, Preemergence, scale 0 to 100 (0 no effect, 100 complete control), read-out: Plant response rating, Crabgrass) was 20%. It also gave a pest or weed control at 62 g/ha ([4]; pre-emergence, Preemergence, scale 0 to 100, 0 no effect, 100 complete control, read-out: Plant response rating, Crabgrass) of 70%, a pest or weed control at 4 g/ha [5, 16] of 40% and a pest or weed control at 62 g/ha [5, 16] of 70%. It also gave a pest or weed control at 4 g/ha ([5]; pre-emergence, Preemergence, scale 0 to 100 (0 no effect, 100 complete control), read-out: Plant response rating, Foxtail, Giant) of 0%, a pest or weed control at 62 g/ha ([5]; pre-emergence, Preemergence, scale 0 to 100, 0 no effect, 100 complete control, read-out: Plant response rating, Foxtail, Giant) of 30% and a plant injury at 4 g/ha (corn (Zea mays); post-emergence, Postemergence, 4 g ai/ha, scale 0 to 100 (0 no effect, 100 complete control), read-out: Corn plant response rating) of 10%. It also gave a plant injury at 62 g/ha (corn (Zea mays); post-emergence, Postemergence, 62 g ai/ha, scale 0 to 100 (0 no effect, 100 complete control), read-out: Corn plant response rating) of 80%, a Corn plant response rating (crop injury, 0 = no effect, 100 = complete kill) at 4 g/ha (corn (Zea mays); pre-emergence, Preemergence, 4 g ai/ha, scale 0 to 100 (0 no effect, 100 complete control)) of 0% and a Corn plant response rating (crop injury, 0 = no effect, 100 = complete kill) at 62 g/ha (corn (Zea mays); pre-emergence, Preemergence, 62 g ai/ha, scale 0 to 100, 0 no effect, 100 complete control) of 0%. For the same molecule, the pest or weed control at 4 g/ha [6, 17] was 80%, the pest or weed control at 62 g/ha [6, 17] was 100% and the pest or weed control at 4 g/ha ([6]; pre-emergence, Preemergence, scale 0 to 100 (0 no effect, 100 complete control), read-out: Plant response rating, Lambsquarters) was 30%. For the same molecule, the pest or weed control at 62 g/ha ([6]; pre-emergence, Preemergence, scale 0 to 100, 0 no effect, 100 complete control, read-out: Plant response rating, Lambsquarters) was 90%, the plant injury at 4 g/ha [7, 18] was 0% and the plant injury at 62 g/ha [7, 18] was 50%. For the same molecule, the plant injury at 4 g/ha [7, 19] was 20%, the plant injury at 62 g/ha [7, 19] was 80% and the pest or weed control at 4 g/ha [8, 20] was 50%. It also gave a pest or weed control at 62 g/ha [8, 20] of 90%, a pest or weed control at 4 g/ha ([8]; pre-emergence, Preemergence, scale 0 to 100 (0 no effect, 100 complete control), read-out: Plant response rating, Velvetleaf) of 0% and a pest or weed control at 62 g/ha ([8]; pre-emergence, Preemergence, scale 0 to 100, 0 no effect, 100 complete control, read-out: Plant response rating, Velvetleaf) of 70%. The pest or weed control at 4 g/ha [9, 21] was 20%, the pest or weed control at 62 g/ha [9, 21] was 80% and the pest or weed control at 4 g/ha ([9]; pre-emergence, Preemergence, scale 0 to 100 (0 no effect, 100 complete control), read-out: Plant response rating, Surinam Grass) was 0%. The pest or weed control at 62 g/ha ([9]; pre-emergence, Preemergence, scale 0 to 100, 0 no effect, 100 complete control, read-out: Plant response rating, Surinam Grass) was 40%, the pest or weed control at 4 g/ha [10, 22] was 80% and the pest or weed control at 62 g/ha [10, 22] was 100%. The pest or weed control at 4 g/ha ([10]; pre-emergence, Preemergence, scale 0 to 100 (0 no effect, 100 complete control), read-out: Plant response rating, Cocklebur) was 10%, the pest or weed control at 62 g/ha ([10]; pre-emergence, Preemergence, scale 0 to 100, 0 no effect, 100 complete control, read-out: Plant response rating, Cocklebur) was 80% and the pest or weed control at 4 g/ha [11, 23] was 70%. It also gave a pest or weed control at 62 g/ha [11, 23] of 100%, a pest or weed control at 4 g/ha ([11]; pre-emergence, Preemergence, scale 0 to 100 (0 no effect, 100 complete control), read-out: Plant response rating, Pigweed) of 20% and a pest or weed control at 62 g/ha ([11]; pre-emergence, Preemergence, scale 0 to 100, 0 no effect, 100 complete control, read-out: Plant response rating, Pigweed) of 100%.
